Reference: publication PMC11995724, “Antibiotic target discovery by integrated phenotypic and activity-based profiling of electrophilic fragments” (Cell chemical biology, 2025)

Assay: in vitro
Details: human, hek293t cells

Structure (SMILES)	viability at 48 h, 25 µM [%]
CN1C(=CC=C(C#N)C(=O)NCC2CCCO2)C(C)(C)c2ccccc21 (stereo not shown) [8-M04, 2-cyano-N-[(oxolan-2-yl)methyl]-4-(1,3,3-trimethyl-2,3-dihydro-1H-indol-2-ylidene)but-2-enamide]	77.7
COc1ccc(C=C(C#N)C(=O)Nc2cccnc2)cc1OC [8-M05, 2-cyano-3-(3,4-dimethoxyphenyl)-N-(pyridin-3-yl)prop-2-enamide]	118
CCOc1cc(C=C(C#N)C(=O)N2CCCC2)cc(Cl)c1O [8-M06, 3-(3-chloro-5-ethoxy-4-hydroxyphenyl)-2-(pyrrolidine-1-carbonyl)prop-2-enenitrile]	92.1
Cc1ccc(C)c(NC(=O)C(C#N)=Cc2cccn2C)c1 [8-M07, 2-cyano-N-(2,5-dimethylphenyl)-3-(1-methyl-1H-pyrrol-2-yl)prop-2-enamide]	87.8
Cc1n[nH]c(C)c1C=C(C#N)C(=O)Nc1cc(Cl)cc(Cl)c1 [8-M08, 2-cyano-N-(3,5-dichlorophenyl)-3-(3,5-dimethyl-1H-pyrazol-4-yl)prop-2-enamide]	58.6
CCN1C(=O)CSC1=C(C#N)C(N)=O [8-M09, 2-cyano-2-(3-ethyl-4-oxo-1,3-thiazolidin-2-ylidene)acetamide]	90.5
N#CC(=Cc1cnn(-c2ccc(Cl)cc2)c1)C(=O)NC1CCCC1 [8-M10, 3-[1-(4-chlorophenyl)-1H-pyrazol-4-yl]-2-cyano-N-cyclopentylprop-2-enamide]	83.3
CC(=O)Nc1ccc(C=C(C#N)C(=O)Nc2ccccc2Cl)cc1 [8-M11, N-(2-chlorophenyl)-2-cyano-3-(4-acetamidophenyl)prop-2-enamide]	86.4
N#CC(=Cc1csnn1)C(=O)Nc1ccc(Oc2ccccc2)cc1 [8-M12, 2-cyano-N-(4-phenoxyphenyl)-3-(1,2,3-thiadiazol-4-yl)prop-2-enamide]	43
CC(=O)Nc1ccc(C=C(C#N)C(=O)Nc2c(C)cc(C)cc2C)cc1 [8-M13, 2-cyano-3-(4-acetamidophenyl)-N-(2,4,6-trimethylphenyl)prop-2-enamide]	87.7
Cc1ccc(C=C(C#N)C(=O)Nc2cccc3ccccc23)cc1 [8-M14, 2-cyano-3-(4-methylphenyl)-N-(naphthalen-1-yl)prop-2-enamide]	121
CC(NC(=O)C(C#N)=Cc1ccc2c(c1)OCCO2)c1ccccc1 (stereo not shown) [8-M15, 2-cyano-3-(2,3-dihydro-1,4-benzodioxin-6-yl)-N-(1-phenylethyl)prop-2-enamide]	64.3
CC(=O)N(c1ccc(C)c(C)c1)c1nc(C=C(C#N)C(N)=O)cs1 [8-M16, 2-cyano-3-{2-[N-(3,4-dimethylphenyl)acetamido]-1,3-thiazol-4-yl}prop-2-enamide]	85.9
CC(C)Oc1ccccc1C=C(C#N)C(=O)Nc1ccccc1 [8-M17, 2-cyano-N-phenyl-3-[2-(propan-2-yloxy)phenyl]prop-2-enamide]	78.4
COc1ccc(NC(=O)C(C#N)=CC=Cc2ccccc2)cc1Cl [8-M18, N-(3-chloro-4-methoxyphenyl)-2-cyano-5-phenylpenta-2,4-dienamide]	75.7
COc1cc(C=C(C#N)C(=O)Nc2nccs2)cc(OC)c1O [8-M19, 2-cyano-3-(4-hydroxy-3,5-dimethoxyphenyl)-N-(1,3-thiazol-2-yl)prop-2-enamide]	86.3
CCc1ccc(NC(=O)C(C#N)=Cc2ccc(F)c(C#N)c2)cc1 [8-M20, 2-cyano-3-(3-cyano-4-fluorophenyl)-N-(4-ethylphenyl)prop-2-enamide]	23.7
Cc1cccc(C=C(C#N)C(=O)Nc2ccc(C(=O)O)cc2)c1 [8-M21, 4-[2-cyano-3-(3-methylphenyl)prop-2-enamido]benzoic acid]	91.6
N#CC(=Cc1ccc(Cl)cc1Cl)C(=O)Nc1ccncc1 [8-M22, 2-cyano-3-(2,4-dichlorophenyl)-N-(pyridin-4-yl)prop-2-enamide]	67
N#CC(=Cc1cccc(O)c1)C(=O)NCCc1ccccc1 [8-N03, 2-cyano-3-(3-hydroxyphenyl)-N-(2-phenylethyl)prop-2-enamide]	101
COc1ccc(NC(=O)C(C#N)=Cc2cccc(Cl)c2Cl)cc1 [8-N04, 2-cyano-3-(2,3-dichlorophenyl)-N-(4-methoxyphenyl)prop-2-enamide]	74.8
Cc1ccccc1NC(=O)C(C#N)=Cc1ccccc1Cl [8-N05, 3-(2-chlorophenyl)-2-cyano-N-(2-methylphenyl)prop-2-enamide]	47.9
COc1cc(C=C(C#N)C(=O)Nc2ccc3c(c2)OCCO3)ccc1O [8-N06, 2-cyano-N-(2,3-dihydro-1,4-benzodioxin-6-yl)-3-(4-hydroxy-3-methoxyphenyl)prop-2-enamide]	91.5
CCOc1ccc(NC(=O)C(C#N)=Cc2ccc(F)cc2)cc1 [8-N07, 2-cyano-N-(4-ethoxyphenyl)-3-(4-fluorophenyl)prop-2-enamide]	102
N#CC(=CC1=Cc2ccccc2OC1)C(=O)Nc1ccc(C(=O)O)cc1 [8-N08, 4-[3-(2H-chromen-3-yl)-2-cyanoprop-2-enamido]benzoic acid]	97.6

Structure (SMILES)	viability at 48 h, 25 µM [%]
CNc1ccc(C=C(C#N)C(=O)Nc2ccccc2F)cc1[N+](=O)[O-] [8-N09, 2-cyano-N-(2-fluorophenyl)-3-[4-(methylamino)-3-nitrophenyl]prop-2-enamide]	110
CC(NC(=O)C(C#N)=Cc1cnn(C)c1)c1ccccc1 (stereo not shown) [8-N10, 2-cyano-3-(1-methyl-1H-pyrazol-4-yl)-N-(1-phenylethyl)prop-2-enamide]	97
CSc1ccc(C=C(C#N)C(=O)Nc2cccc(Cl)c2C)cc1 [8-N11, N-(3-chloro-2-methylphenyl)-2-cyano-3-[4-(methylsulfanyl)phenyl]prop-2-enamide]	103
N#CC(=Cc1c2ccccc2c(Cl)c2ccccc12)C(N)=O [8-N12, 3-(10-chloroanthracen-9-yl)-2-cyanoprop-2-enamide]	69.3
CCCCNC(=O)C(C#N)=Cc1cccc2ccccc12 [8-N13, N-butyl-2-cyano-3-(naphthalen-1-yl)prop-2-enamide]	112
COc1ccc(O)c(C=C(C#N)C(=O)Nc2cccc3ccccc23)c1 [8-N14, 2-cyano-3-(2-hydroxy-5-methoxyphenyl)-N-(naphthalen-1-yl)prop-2-enamide]	117
N#CC(=Cc1cccc2ccccc12)C(=O)NCc1ccco1 [8-N15, 2-cyano-N-[(furan-2-yl)methyl]-3-(naphthalen-1-yl)prop-2-enamide]	91
CC(=O)Nc1ccc(C=C(C#N)C(=O)NC2CCCCC2)cc1 [8-N16, 2-cyano-N-cyclohexyl-3-(4-acetamidophenyl)prop-2-enamide]	95.6
N#CC(=Cc1ccncc1)C(=O)Nc1ccccc1Cl [8-N17, N-(2-chlorophenyl)-2-cyano-3-(pyridin-4-yl)prop-2-enamide]	112
N#CC(=Cc1cn(-c2ccccc2)nc1-c1ccccc1Cl)C(N)=O [8-N18, 3-[3-(2-chlorophenyl)-1-phenyl-1H-pyrazol-4-yl]-2-cyanoprop-2-enamide]	91.5
CCCn1c(C)cc(C=C(C#N)C(=O)Nc2cccc(C#N)c2)c1C [8-N19, 2-cyano-N-(3-cyanophenyl)-3-(2,5-dimethyl-1-propyl-1H-pyrrol-3-yl)prop-2-enamide]	107
CC(NC(=O)C(C#N)=Cc1ccccc1)C12CC3CC(CC(C3)C1)C2 (stereo not shown) [8-N20, N-[1-(adamantan-1-yl)ethyl]-2-cyano-3-phenylprop-2-enamide]	13.9
N#CC(=Cc1ccco1)C(=O)NC1CC1 [8-N21, 2-cyano-N-cyclopropyl-3-(furan-2-yl)prop-2-enamide]	112
COc1cc(C=C(C#N)C(=O)Nc2cccc(C)c2)c2c(c1)CC(C)O2 (stereo not shown) [8-N22, 2-cyano-3-(5-methoxy-2-methyl-2,3-dihydro-1-benzofuran-7-yl)-N-(3-methylphenyl)prop-2-enamide]	83.2
N#CC(=Cc1ccc(-c2ccc(Cl)cc2)o1)C(=O)Nc1ccccc1 [8-O03, 3-[5-(4-chlorophenyl)furan-2-yl]-2-cyano-N-phenylprop-2-enamide]	58.3
N#CC(=Cc1ccc(N2CCCCC2)cc1)C(=O)NC1CC1 [8-O04, 2-cyano-N-cyclopropyl-3-[4-(piperidin-1-yl)phenyl]prop-2-enamide]	82.3
N#CC(=Cc1ccc(O)c([N+](=O)[O-])c1)C(=O)NCc1ccccc1 [8-O05, N-benzyl-2-cyano-3-(4-hydroxy-3-nitrophenyl)prop-2-enamide]	98.7
CC(NC(=O)C(C#N)=Cc1cc(F)ccc1F)c1ccccc1 (stereo not shown) [8-O06, 2-cyano-3-(2,5-difluorophenyl)-N-(1-phenylethyl)prop-2-enamide]	25.3
C=CCNC(=O)C(C#N)=Cc1ccc(C#N)cc1 [8-O07, 2-cyano-3-(4-cyanophenyl)-N-(prop-2-en-1-yl)prop-2-enamide]	85.6
N#CC(=Cc1cc(F)ccc1F)C(=O)Nc1ccc(Cl)cc1Cl [8-O08, 2-cyano-N-(2,4-dichlorophenyl)-3-(2,5-difluorophenyl)prop-2-enamide]	68.1
CCNC(=O)C(C#N)=Cc1ccc(O)c(OCC)c1 [8-O09, 2-cyano-3-(3-ethoxy-4-hydroxyphenyl)-N-ethylprop-2-enamide]	98.9
CC(C)Oc1ccc(C=C(C#N)C(=O)NC2CCCC2)cc1 [8-O10, 2-cyano-N-cyclopentyl-3-[4-(propan-2-yloxy)phenyl]prop-2-enamide]	57.5
N#CC(=Cc1ccc([N+](=O)[O-])cc1)C(=O)Nc1ccc(Cl)cc1 [8-O11, N-(4-chlorophenyl)-2-cyano-3-(4-nitrophenyl)prop-2-enamide]	82.6
CC1CN(C(=O)C(C#N)=Cc2c(Cl)cccc2Cl)CC(C)O1 (stereo not shown) [8-O12, 3-(2,6-dichlorophenyl)-2-(2,6-dimethylmorpholine-4-carbonyl)prop-2-enenitrile]	60.2
